# Source: patent publication US20100069393A1, “METHOD OF TREATMENT AND AGENTS USEFUL FOR SAME” (PRANA BIOTECHNOLOGY LIMITED, priority 2006, published 2010)
# Legend:
# [1] = Neurotoxicity assay: MTS viability of primary cortical neuronal cultures; type: cell-based, mouse; details: BL6Jx129sv, mouse, primary cortical neuronal cultures, Neuronal cells, read-out: Cytotoxicity (% viable at 1 and 10 uM); for viability at 4 days, 1 uM: test compound 1 uM; for viability at 4 days, 10 uM: test compound 10 uM
# [2] = Mice plasma concentration; type: in vivo; details: for Mice plasma concentration: presence in plasma at one or two time points (between 30 min and 4 h); for Mice plasma concentration (single dose) / Mice plasma concentration at 10 mg/kg: one or two time points (between 30 min and 4 h)
# [3] = Blood brain barrier penetration (brain:plasma ratio after IV dose); type: in vivo; details: nominal dose 5 mg/kg, male Swiss Outbred mice
# Experimental: A bolus injection of each of the test compound (50 μL of a 3 mg/mL aqueous solution containing 40% propylene glycol and 10% ethanol) was administered by tail vein injection to male Swiss Outbred mice (5-7 weeks of age).
# At 5 and 60 min post-dose (n=3 mice at each time point), blood was collected by cardiac puncture and the whole brain was removed by making an incision through the back of the skull. Mice were anaesthetised approximately 3-4 min prior to blood and brain harvest with an intraperitoneal injection of ketamine and xylazine (133 mg/kg and 10 mg/kg, respectively).
# The whole brain was placed into preweighed polypropylene vials and stored at −20° C. until analysis. On the day of analysis, the whole brain was homogenised in 3 parts of water (on ice to reduce the potential for ex vivo brain degradation) and an aliquot of the brain homogenate and plasma was analysed for compound concentration by LCMS. Standards were prepared by spiking blank brain homogenate and both samples and standards were processed by adding acetonitrile to the tissue homogenate, centrifuging and injecting an aliquot of the supernatant onto the LCMS.
# To ensure complete recovery of compound from the brain, brain homogenate was spiked with compound (in 50% acetonitrile:50% water) to a nominal concentration of 500 ng/mL. The concentration of compound in the supernatant was then determined by LCMS and compared to the supernatant concentration when compound was added following precipitation with acetonitrile.
# [4] = Cytotoxicity: viability of M17 cells; details: human, M17 neuroblastoma cells, Cytotoxicity (% viable at 1 and 10 uM); for viability at 1 uM: test compound 1 uM; for viability at 10 uM: test compound 10 uM
# [5] = In vivo toxicity, visual observations; details: number of days
Mice plasma concentration [2],B:P Ratio ([3]; 5 min post dose),B:P Ratio ([3]; 60 min post dose),Mice plasma concentration (single dose) [2],Mice plasma concentration at 10 mg/kg [2],SMILES,"viability at 4 days, 1 uM [1]","viability at 4 days, 10 uM [1]",viability at 1 uM [4],viability at 10 uM [4],Toxicity at 30 mg/kg [5],Toxicity at 10 mg/kg [5]
,,,Up to 113.2 ng/mL (single dose),,Br.CCN(CC)CCn1cnc2c(O)c(Cl)cc(Cl)c2c1=O,107%,77%,100%,70.3%,"10 days, none",
Up to 2641 ng/mL,,,,,Br.CCCn1cnc2c(O)c(Cl)cc(Cl)c2c1=O,102%,83%,107%,98.8%,"10 days, none",
Up to 510.4 ng/mL,,,,,Br.CNCc1nc2c(O)c(Cl)cc(Cl)c2c(=O)n1C,,,96%,90.6%,"10 days, none",
Up to 2181.1 ng/mL,,,,,O=c1c2c(Cl)cc(Cl)c(O)c2ncn1Cc1ccncc1,,,105%,90.4%,"10 days, none",
Up to 441.4 ng/mL,,,,,O=c1c2c(Cl)cc(Cl)c(O)c2ncn1Cc1nccs1,,,96%,99.8%,"10 days, none",
Up to 383 ng/mL,,,,,Br.CCC(C)n1cnc2c(O)c(Cl)cc(Cl)c2c1=O (stereo not drawn) [drawing 185],104%,71%,94.3%,74.5%,"10 days, none",
Up to 382.5 ng/mL,,,,,Br.CN1CCCC1Cn1cnc2c(O)c(Cl)cc(Cl)c2c1=O (stereo not drawn),,,107%,93.9%,"10 days, none",
Up to 1477.4 ng/mL,,,,,O=c1c2c(Cl)cc(Cl)c(O)c2ncn1-c1cc[nH]n1,,,126%,115%,"10 days, none",
Up to 4023.4 ng/mL,,,,,O=c1c2c(Cl)cc(Cl)c(O)c2ncn1Cc1cccnc1,,,106%,95.4%,"10 days, none",
Up to 492.1 ng/mL,,,,,Br.CN(C)Cc1nc2c(O)c(Cl)cc(Cl)c2c(=O)n1C,,,104%,111%,"10 days, 1 of 4 mild signs",
Up to 7107 ng/mL,,,,,Cc1noc(C)c1-n1cnc2c(O)c(Cl)cc(Cl)c2c1=O,,,106%,94.2%,"10 days, none",
Up to 17008 ng/mL,,,,,O=C(O)CCCn1cnc2c(O)c(Cl)cc(Cl)c2c1=O,,,110%,103%,"10 days, none",
Up to 1802 ng/mL,,,,,CC(C)Cn1cnc2c(O)c(Cl)cc(Cl)c2c1=O,99%,70%,102%,75.6%,"10 days, none",

# The next lines start with the molecule.
SMILES,Mice plasma concentration [2],B:P Ratio ([3]; 5 min post dose),B:P Ratio ([3]; 60 min post dose),Mice plasma concentration (single dose) [2],Mice plasma concentration at 10 mg/kg [2],"viability at 4 days, 1 uM [1]","viability at 4 days, 10 uM [1]",viability at 1 uM [4],viability at 10 uM [4],Toxicity at 30 mg/kg [5],Toxicity at 10 mg/kg [5]
Cn1cnc(CCNC(=O)c2ccc3c(Cl)cc(Cl)c(O)c3n2)c1,Up to 11605 ng/mL,0.06,0.20,,,93%,88%,108%,82.6%,"10 days, none",
O=c1c2c(Cl)cc(Cl)c(O)c2ncn1N1CCOCC1,Up to 45.2 ng/mL,,,,,105%,70%,95.9%,80.9%,"10 days, none",
CC(C)Cn1cnc2c(O)c(I)ccc2c1=O,,,,,At 10 mg/kg: Up to 309 ng/ml ng/mL,,,111%,68.2%,,"At 10 mg/kg: 10 days, none"
CCc1cnc2c(O)c(I)ccn2c1=O,,,,,At 10 mg/kg: Up to 7082 ng/mL,,,82.5%,23.3%,,"At 10 mg/kg 10 days, none"
CCCc1cnc2c(O)c(I)ccn2c1=O,Up to 11742 ng/ml ng/mL,0.02,0.03,,,,,80.8%,47.6%,"10 days, none",
OCCN1C=Nc2c(O)c(Cl)cc(Cl)c2C1,Up to 8134.8 ng/mL,,,,,107%,96%,115%,119%,"10 days, none",
O=c1c2c(Cl)cc(Cl)c(O)c2ncn1CCN1CCCC1,,,,Up to 520 ng/mL (single dose),,104%,91%,104%,101%,"14 days, 1 of 4 death",
O=c1c2c(Cl)cc(Cl)c(O)c2ncn1Nc1ccc(F)cc1F,"Up to 1,130.6 ng/mL",,,,,100%,92%,105%,83.1%,"10 days, none",
O=c1c2c(Cl)cc(Cl)c(O)c2ncn1Cc1nc2ccccc2[nH]1,Up to 2796 ng/mL,,,,,,,102%,100%,"10 days, none",
Cn1c(-n2cnc3c(O)c(Cl)cc(Cl)c3c2=O)nc2ccccc21,Up to 112.4 ng/mL,,,,,105%,97%,107%,94.9%,"10 days, none",
O=c1c2ccc(I)c(O)c2ncn1Cc1ccccn1,Up to 1538 ng/mL,,,,,,,93.8%,84.5%,"10 days, none",
O=c1c2c(Cl)cc(Cl)c(O)c2ncn1-c1ccc2[nH]ncc2c1,Up to 126 ng/mL,,,,,,,96.2%,88.9%,"10 days, none",
Br.CCN(CC)Cc1nc2c(O)c(Cl)cc(Cl)c2c(=O)[nH]1,Up to 2289 ng/mL,,,,,,,106%,99.1%,"10 days, none",
CCNCc1ccc2c(Cl)cc(Cl)c(O)c2n1.Cl,Up to 403 ng/mL,,,,,87%,56%,78.3%,44%,"10 days, none",
O=c1c2cccc(O)c2ncn1-c1ccc(Cl)cn1,Up to 6 ng/mL,,,,,,,107%,122%,"10 days, none",
O=c1c2ccc(I)c(O)c2ncn1CC1CC1,Up to 2508 ng/mL,0.07,0.06,,,,,111%,65.1%,"10 days, none",
O=C(NCc1ccccc1)c1cnc2c(O)cccn2c1=O,Up to 22.2 ng/mL,,,,,,,92.7%,97.3%,"10 days, none",
CCn1c(CN(C)C)nc2c(O)c(Cl)cc(Cl)c2c1=O.Cl,Up to 975.9 ng/mL,,,,,,,99.2%,102%,"10 days, none",
O=c1c2c(Cl)cc(Cl)c(O)c2ncn1CCNCc1ccncc1,Up to 1639.8 ng/mL,,,,,,,103%,105%,"10 days, none",
CCCn1cnc2c(O)c(I)ccc2c1=S,Up to 1593 ng/ml ng/mL,,,,,,,89.9%,86.2%,"10 days, none",
O=c1c2c(Cl)cc(Cl)c(O)c2ncn1-c1ccccn1 [drawing 171],,,,Up to 142.9 ng/mL (single dose),,95%,81%,101%,80.5%,"10 days, none",
O=c1c2c(Cl)cc(Cl)c(O)c2ncn1Cc1nc2ccccc2s1,Up to 166.1 ng/mL,,,,,,,111%,80.9%,"10 days, none",
O=c1c2c(Cl)cc(Cl)c(O)c2ncn1Cc1ccn2ccnc2c1,Up to 1465.4 ng/mL,,,,,,,105%,105%,"10 days, none",
